Reference: patent publication US10160812B2, “Bispecific HER2 antibodies” (MedImmune, LLC, priority 2014, dated 2018)

B1: 1.39.1: fully human monoclonal antibody against human HER2, parent of 39S (WO 2008/019290); VH SEQ ID NO:43, VL SEQ ID NO:44 (antibody, V domains shown)
VH: EVQLVESGGGLVKPGGSLRLSCAASGFTFSSYSMNWVRQAPGKGLEWVSSISSSSSYIYYADSVKGRFTISRDNAKNSLYLQMNSLRAEDTAVYYCARGGDGYNYYYFDYWGQGTLVTVSS
VL: DIVMTQSPDSLAVSLGERATITCKSSQSVFFRSNNKNCLAWYQQRPGQPPNLLIYWASSRESGVPDRFSGSGSGTDFALTISSLQTEDVAVYYCQQYFGSPFTFGPGTKVDIK

How the values were obtained:
NCI-N87 cell = test: Proliferation inhibition assay in serum-containing media; assay type: cell-based, human
Experimental: Cell viability was determined using Cell Titer Glo from Promega according to manufacturer's instructions.

HER2 = HER2 (Homo sapiens, UniProt P04626); settings: reported value; read-out: reported affinity of the parent antibody; cited from earlier work

Row | Molecule | inhibition of cell proliferation (NCI-N87 cell) | Kd (HER2) [nM]
1 | pertuzumab: humanized version of the murine antibody 2C4 that inhibits dimerization of HER2 with other HER receptors [reference compound] | limited activity | 
2 | B1 |  | ~2
